Measurements as given in ChEMBL document CHEMBL5058649, “Data for DCP probe BAY 1816032” (2022).
Activity calls are given as the source filed them. No cut-off for these calls is given here.

Key:
[1] = target: D(2) dopamine receptor (Homo sapiens) (UniProt P14416); details: Compound concentration 10.0 uM
[2] = target: 5'-AMP-activated protein kinase catalytic subunit alpha-2 (Homo sapiens) (UniProt P54646); assay: AMPK-alpha2 DiscoveRx kinase panel; details: Compound concentration 1.0 uM
[3] = target: Phosphatidylinositol 4-kinase beta (Homo sapiens) (UniProt Q9UBF8); assay: PIK4CB DiscoveRx kinase panel; details: Compound concentration 1.0 uM
[4] = target: Myosin-IIIb (Homo sapiens) (UniProt Q8WXR4); assay: MYO3B DiscoveRx kinase panel; details: Compound concentration 1.0 uM
[5] = target: Glutamate NMDA receptor (Rattus norvegicus) (UniProt P35439+Q00959+Q00960+Q00961+Q62645+Q8VHN2+Q9R1M7); details: Compound concentration 10.0 uM
[6] = target: Misshapen-like kinase 1 (Homo sapiens) (UniProt Q8N4C8); assay: MINK DiscoveRx kinase panel; details: Compound concentration 1.0 uM
[7] = target: Serine/threonine-protein kinase Sgk3 (Homo sapiens) (UniProt Q96BR1); assay: SGK3 DiscoveRx kinase panel; details: Compound concentration 1.0 uM
[8] = target: Aurora kinase B (Homo sapiens) (UniProt Q96GD4); assay: AURKB DiscoveRx kinase panel; details: Compound concentration 1.0 uM
[9] = target: Cyclin-dependent kinase 16 (Homo sapiens) (UniProt Q00536); assay: PCTK1 DiscoveRx kinase panel; details: Compound concentration 1.0 uM
[10] = target: Calcium/calmodulin-dependent protein kinase type 1 (Homo sapiens) (UniProt Q14012); assay: CAMK1 DiscoveRx kinase panel; details: Compound concentration 1.0 uM
[11] = target: Calcium/calmodulin-dependent protein kinase type II subunit beta (Homo sapiens) (UniProt Q13554); assay: CAMK2B DiscoveRx kinase panel; details: Compound concentration 1.0 uM
[12] = target: Microtubule-associated serine/threonine-protein kinase 1 (Homo sapiens) (UniProt Q9Y2H9); assay: MAST1 DiscoveRx kinase panel; details: Compound concentration 1.0 uM
[13] = target: Hepatocyte growth factor receptor (Homo sapiens) (UniProt P08581); assay: MET DiscoveRx kinase panel; details: Compound concentration 1.0 uM
[14] = target: 5-hydroxytryptamine receptor 2A (Homo sapiens) (UniProt P28223); assay: Serotonin (5-Hydroxytryptamine) 5-HT2A Eurofins-Panlabs radioligand binding assay; details: Compound concentration 10.0 uM
[15] = target: G protein-coupled receptor kinase 4 (Homo sapiens) (UniProt P32298); assay: GRK4 DiscoveRx kinase panel; details: Compound concentration 1.0 uM
[16] = target: Serine/threonine-protein kinase PAK 6 (Homo sapiens) (UniProt Q9NQU5); assay: PAK6 DiscoveRx kinase panel; details: Compound concentration 1.0 uM
[17] = target: Glycogen synthase kinase-3 alpha (Homo sapiens, UniProt P49840); assay: GSK3A DiscoveRx kinase panel
[18] = target: Phosphodiesterase 3 (Homo sapiens) (UniProt Q14432+Q13370); assay: Inhibition of Phosphodiesterase PDE3 at compound concentration of 10.0 uM in the Eurofins-Panlabs enzyme assay (Eurofins_assay_152000); assay type: protein assay; design: substrate with concentration 1.01 uM [3H] cAMP + cAMP, incubation time 20 min, incubation temperature 25 C; details: Compound concentration 10.0 uM
[19] = target: Serine/threonine-protein kinase B-raf (Homo sapiens) (UniProt P15056); assay: BRAF DiscoveRx kinase panel; details: Compound concentration 1.0 uM
[20] = target: Cyclin-dependent kinase 7 (Homo sapiens) (UniProt P50613); assay: CDK7 DiscoveRx kinase panel; details: Compound concentration 1.0 uM
[21] = target: Death-associated protein kinase 1 (Homo sapiens) (UniProt P53355); assay: DAPK1 DiscoveRx kinase panel; details: Compound concentration 1.0 uM
[22] = target: Cyclin-dependent kinase 9 (Homo sapiens) (UniProt P50750); assay: CDK9 DiscoveRx kinase panel; details: Compound concentration 1.0 uM
[23] = target: T1, Alpha-2A adrenergic receptor (Homo sapiens) (UniProt P08913); details: Compound concentration 10.0 uM
T1 sequence (whole entry): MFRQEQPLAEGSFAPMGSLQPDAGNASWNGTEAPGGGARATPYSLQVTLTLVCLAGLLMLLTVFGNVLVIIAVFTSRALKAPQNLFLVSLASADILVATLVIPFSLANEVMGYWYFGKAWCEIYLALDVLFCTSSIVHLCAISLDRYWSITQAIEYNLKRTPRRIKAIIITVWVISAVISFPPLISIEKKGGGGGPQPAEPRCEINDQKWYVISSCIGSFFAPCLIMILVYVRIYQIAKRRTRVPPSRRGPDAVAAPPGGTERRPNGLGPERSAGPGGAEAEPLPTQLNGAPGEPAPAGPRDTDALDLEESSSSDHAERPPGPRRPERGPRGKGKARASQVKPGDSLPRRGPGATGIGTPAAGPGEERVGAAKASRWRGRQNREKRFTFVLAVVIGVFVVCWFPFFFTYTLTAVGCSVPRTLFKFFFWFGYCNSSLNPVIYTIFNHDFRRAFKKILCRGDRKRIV

[24] = target: Ribosomal protein S6 kinase alpha-1 (Homo sapiens) (UniProt Q15418); assay: RSK1(Kin.Dom.2-C-terminal) DiscoveRx kinase panel; details: Compound concentration 1.0 uM
[25] = target: Serine/threonine-protein kinase/endoribonuclease IRE1 (Homo sapiens) (UniProt O75460); assay: ERN1 DiscoveRx kinase panel; details: Compound concentration 1.0 uM
[26] = target: Mitogen-activated protein kinase 6 (Homo sapiens) (UniProt Q16659); assay: ERK3 DiscoveRx kinase panel; details: Compound concentration 1.0 uM
[27] = target: Serine/threonine-protein kinase NIM1 (Homo sapiens) (UniProt Q8IY84); assay: NIM1 DiscoveRx kinase panel; details: Compound concentration 1.0 uM
[28] = target: Serine/threonine-protein kinase 17B (Homo sapiens) (UniProt O94768); assay: DRAK2 DiscoveRx kinase panel; details: Compound concentration 1.0 uM
[29] = target: Angiopoietin-1 receptor (Homo sapiens) (UniProt Q02763); assay: TIE2 DiscoveRx kinase panel; details: Compound concentration 1.0 uM
[30] = target: Serine/threonine-protein kinase 26 (Homo sapiens) (UniProt Q9P289); assay: MST4 DiscoveRx kinase panel; details: Compound concentration 1.0 uM
[31] = tested on: MDA-MB-436; assay: MDA-MB-436 cell line Proliferation assay; assay type: functional, Homo sapiens; details: time 4 day
[32] = target: Mitogen-activated protein kinase 3 (Homo sapiens) (UniProt P27361); assay: ERK1 DiscoveRx kinase panel; details: Compound concentration 1.0 uM
[33] = target: MAO-B (Homo sapiens, UniProt P27338); assay: Inhibition of Monoamine Oxidase MAO-B at compound concentration of 10.0 uM in the Eurofins-Panlabs enzyme assay (Eurofins_assay_140120); design: substrate with concentration 50 uM Kynuramine, incubation time 60 min, incubation temperature 37 C; details: human recombinant MAO-B expressed in insect Hi5 cells, probe Kynuramine (50 uM), compound concentration 10 uM
[34] = target: BMP-2-inducible protein kinase (Homo sapiens) (UniProt Q9NSY1); assay: BIKE DiscoveRx kinase panel; details: Compound concentration 1.0 uM
[35] = target: Mitogen-activated protein kinase kinase kinase 11 (Homo sapiens) (UniProt Q16584); assay: MLK3 DiscoveRx kinase panel; details: Compound concentration 1.0 uM
[36] = target: Serine/threonine-protein kinase 38-like (Homo sapiens) (UniProt Q9Y2H1); assay: NDR2 DiscoveRx kinase panel; details: Compound concentration 1.0 uM
[37] = tested on: SUM149PT; assay: SUM-149 cell line Proliferation assay; assay type: functional, Homo sapiens; details: time 4 day
[38] = target: Mitogen-activated protein kinase 15 (Homo sapiens) (UniProt Q8TD08); assay: ERK8 DiscoveRx kinase panel; details: Compound concentration 1.0 uM
[39] = target: TRAF2 and NCK-interacting protein kinase (Homo sapiens) (UniProt Q9UKE5); assay: TNIK DiscoveRx kinase panel; details: Compound concentration 1.0 uM
[40] = target: Casein kinase I isoform epsilon (Homo sapiens) (UniProt P49674); assay: CSNK1E DiscoveRx kinase panel; details: Compound concentration 1.0 uM
[41] = target: Mitotic checkpoint serine/threonine-protein kinase BUB1 (Homo sapiens, UniProt O43683); assay: BUB1 biochemical assay (low ATP)

Phosphatidylinositol 4-kinase beta (Homo sapiens), sequence (Q9UBF8 2-816 limits assumed): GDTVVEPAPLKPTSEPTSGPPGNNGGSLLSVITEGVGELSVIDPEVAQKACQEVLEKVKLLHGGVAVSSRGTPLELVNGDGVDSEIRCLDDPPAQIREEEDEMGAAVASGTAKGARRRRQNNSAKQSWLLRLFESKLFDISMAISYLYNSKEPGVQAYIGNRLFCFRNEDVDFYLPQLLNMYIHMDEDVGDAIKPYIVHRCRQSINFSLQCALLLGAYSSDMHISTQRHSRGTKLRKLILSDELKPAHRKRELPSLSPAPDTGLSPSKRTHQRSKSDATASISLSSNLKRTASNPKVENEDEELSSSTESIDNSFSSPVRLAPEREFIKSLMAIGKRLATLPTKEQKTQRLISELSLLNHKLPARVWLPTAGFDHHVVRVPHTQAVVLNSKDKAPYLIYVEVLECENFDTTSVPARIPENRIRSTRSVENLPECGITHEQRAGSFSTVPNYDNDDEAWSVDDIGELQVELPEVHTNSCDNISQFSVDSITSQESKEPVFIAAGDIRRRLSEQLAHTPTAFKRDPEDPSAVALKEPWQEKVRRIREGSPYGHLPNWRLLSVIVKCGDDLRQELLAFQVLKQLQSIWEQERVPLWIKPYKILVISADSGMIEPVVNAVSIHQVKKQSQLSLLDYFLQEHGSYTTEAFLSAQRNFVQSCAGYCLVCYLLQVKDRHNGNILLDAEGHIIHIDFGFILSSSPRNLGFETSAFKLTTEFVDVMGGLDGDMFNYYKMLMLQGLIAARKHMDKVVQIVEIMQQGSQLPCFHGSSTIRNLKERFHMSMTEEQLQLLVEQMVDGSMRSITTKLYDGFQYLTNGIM
D(2) dopamine receptor (Homo sapiens), sequence (P14416 whole entry): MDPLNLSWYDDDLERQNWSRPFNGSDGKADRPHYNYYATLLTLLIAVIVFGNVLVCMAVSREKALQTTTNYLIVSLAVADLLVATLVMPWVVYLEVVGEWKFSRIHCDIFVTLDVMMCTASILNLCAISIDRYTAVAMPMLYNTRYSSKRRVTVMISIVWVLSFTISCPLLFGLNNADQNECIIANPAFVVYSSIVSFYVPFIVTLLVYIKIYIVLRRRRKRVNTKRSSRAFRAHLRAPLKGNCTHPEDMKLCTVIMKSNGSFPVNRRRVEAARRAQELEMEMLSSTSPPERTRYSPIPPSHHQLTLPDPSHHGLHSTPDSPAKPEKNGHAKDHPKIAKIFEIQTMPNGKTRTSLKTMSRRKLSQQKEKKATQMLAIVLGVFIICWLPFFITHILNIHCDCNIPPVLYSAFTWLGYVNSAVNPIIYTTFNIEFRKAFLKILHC
BMP-2-inducible protein kinase (Homo sapiens), sequence (Q9NSY1 whole entry, looked up): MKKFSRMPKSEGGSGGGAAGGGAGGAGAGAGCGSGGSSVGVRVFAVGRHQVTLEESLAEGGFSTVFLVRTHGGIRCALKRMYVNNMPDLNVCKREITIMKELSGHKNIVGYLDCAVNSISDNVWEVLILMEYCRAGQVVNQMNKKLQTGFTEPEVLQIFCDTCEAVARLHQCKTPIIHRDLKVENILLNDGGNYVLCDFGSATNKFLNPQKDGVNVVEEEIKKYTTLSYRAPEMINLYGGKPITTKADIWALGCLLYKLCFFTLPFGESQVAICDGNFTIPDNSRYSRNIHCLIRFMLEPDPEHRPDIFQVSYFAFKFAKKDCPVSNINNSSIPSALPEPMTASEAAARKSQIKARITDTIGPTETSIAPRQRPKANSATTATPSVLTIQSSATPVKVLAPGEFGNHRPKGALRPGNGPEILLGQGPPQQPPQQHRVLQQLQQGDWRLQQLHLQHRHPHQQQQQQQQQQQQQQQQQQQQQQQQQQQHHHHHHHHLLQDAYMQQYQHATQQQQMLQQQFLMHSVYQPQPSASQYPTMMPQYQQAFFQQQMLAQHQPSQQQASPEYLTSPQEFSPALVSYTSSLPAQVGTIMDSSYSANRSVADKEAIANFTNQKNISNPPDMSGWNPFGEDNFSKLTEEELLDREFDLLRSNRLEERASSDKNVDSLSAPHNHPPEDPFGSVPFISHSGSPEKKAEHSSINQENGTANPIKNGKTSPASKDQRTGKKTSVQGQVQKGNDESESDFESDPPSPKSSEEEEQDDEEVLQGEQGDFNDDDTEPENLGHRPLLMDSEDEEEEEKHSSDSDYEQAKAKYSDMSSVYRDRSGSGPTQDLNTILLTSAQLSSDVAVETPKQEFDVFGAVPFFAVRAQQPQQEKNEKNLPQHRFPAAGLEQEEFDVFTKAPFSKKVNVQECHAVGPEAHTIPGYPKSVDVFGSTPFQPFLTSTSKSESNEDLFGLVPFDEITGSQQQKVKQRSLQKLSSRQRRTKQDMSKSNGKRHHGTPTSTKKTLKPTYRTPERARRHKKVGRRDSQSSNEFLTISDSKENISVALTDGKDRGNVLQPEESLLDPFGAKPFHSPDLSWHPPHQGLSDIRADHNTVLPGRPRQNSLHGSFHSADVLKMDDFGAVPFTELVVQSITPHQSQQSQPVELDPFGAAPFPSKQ
Casein kinase I isoform epsilon (Homo sapiens), sequence (P49674 whole entry, looked up, canonical isoform): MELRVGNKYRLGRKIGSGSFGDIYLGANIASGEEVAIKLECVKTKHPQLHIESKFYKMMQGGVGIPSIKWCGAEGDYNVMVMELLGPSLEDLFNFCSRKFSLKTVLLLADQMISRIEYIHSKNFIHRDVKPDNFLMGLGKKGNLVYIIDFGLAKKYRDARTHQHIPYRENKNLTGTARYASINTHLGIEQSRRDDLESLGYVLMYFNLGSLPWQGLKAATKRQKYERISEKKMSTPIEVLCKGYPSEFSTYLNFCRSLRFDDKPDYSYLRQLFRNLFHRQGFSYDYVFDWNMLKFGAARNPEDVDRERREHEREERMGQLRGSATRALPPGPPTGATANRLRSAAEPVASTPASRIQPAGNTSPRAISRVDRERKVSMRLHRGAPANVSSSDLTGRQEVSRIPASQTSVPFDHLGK
Serine/threonine-protein kinase NIM1 (Homo sapiens), sequence (Q8IY84 whole entry): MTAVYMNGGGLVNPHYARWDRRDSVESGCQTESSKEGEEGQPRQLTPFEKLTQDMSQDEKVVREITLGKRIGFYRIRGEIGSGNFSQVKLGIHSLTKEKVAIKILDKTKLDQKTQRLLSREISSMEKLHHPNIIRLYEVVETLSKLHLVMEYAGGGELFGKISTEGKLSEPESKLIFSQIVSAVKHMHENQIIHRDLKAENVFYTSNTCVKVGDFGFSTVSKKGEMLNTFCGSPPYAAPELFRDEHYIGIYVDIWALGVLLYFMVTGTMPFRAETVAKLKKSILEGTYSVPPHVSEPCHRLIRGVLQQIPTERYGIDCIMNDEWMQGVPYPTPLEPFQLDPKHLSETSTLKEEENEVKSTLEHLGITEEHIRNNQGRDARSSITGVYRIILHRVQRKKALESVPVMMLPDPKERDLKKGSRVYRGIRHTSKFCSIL
Mitogen-activated protein kinase 3 (Homo sapiens), sequence (P27361 whole entry): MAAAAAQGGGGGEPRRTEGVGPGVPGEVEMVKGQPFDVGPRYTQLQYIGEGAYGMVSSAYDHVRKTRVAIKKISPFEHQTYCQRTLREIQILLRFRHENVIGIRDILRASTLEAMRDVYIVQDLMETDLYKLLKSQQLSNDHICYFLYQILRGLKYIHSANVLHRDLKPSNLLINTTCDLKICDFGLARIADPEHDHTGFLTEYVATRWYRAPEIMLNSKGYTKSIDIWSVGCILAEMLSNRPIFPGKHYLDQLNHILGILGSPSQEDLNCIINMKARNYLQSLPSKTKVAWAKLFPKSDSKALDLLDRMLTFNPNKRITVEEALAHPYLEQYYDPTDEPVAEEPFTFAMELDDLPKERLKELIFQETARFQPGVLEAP
Aurora kinase B (Homo sapiens), sequence (Q96GD4 whole entry): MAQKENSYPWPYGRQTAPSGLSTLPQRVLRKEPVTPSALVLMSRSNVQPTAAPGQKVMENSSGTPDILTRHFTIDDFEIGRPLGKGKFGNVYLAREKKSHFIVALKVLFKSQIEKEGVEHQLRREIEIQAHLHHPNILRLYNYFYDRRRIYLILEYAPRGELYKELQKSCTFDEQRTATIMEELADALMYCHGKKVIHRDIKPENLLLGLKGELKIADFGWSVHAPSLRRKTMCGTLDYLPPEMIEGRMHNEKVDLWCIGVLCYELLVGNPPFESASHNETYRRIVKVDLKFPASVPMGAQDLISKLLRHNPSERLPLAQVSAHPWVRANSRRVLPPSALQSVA
Ribosomal protein S6 kinase alpha-1 (Homo sapiens), sequence (Q15418 whole entry): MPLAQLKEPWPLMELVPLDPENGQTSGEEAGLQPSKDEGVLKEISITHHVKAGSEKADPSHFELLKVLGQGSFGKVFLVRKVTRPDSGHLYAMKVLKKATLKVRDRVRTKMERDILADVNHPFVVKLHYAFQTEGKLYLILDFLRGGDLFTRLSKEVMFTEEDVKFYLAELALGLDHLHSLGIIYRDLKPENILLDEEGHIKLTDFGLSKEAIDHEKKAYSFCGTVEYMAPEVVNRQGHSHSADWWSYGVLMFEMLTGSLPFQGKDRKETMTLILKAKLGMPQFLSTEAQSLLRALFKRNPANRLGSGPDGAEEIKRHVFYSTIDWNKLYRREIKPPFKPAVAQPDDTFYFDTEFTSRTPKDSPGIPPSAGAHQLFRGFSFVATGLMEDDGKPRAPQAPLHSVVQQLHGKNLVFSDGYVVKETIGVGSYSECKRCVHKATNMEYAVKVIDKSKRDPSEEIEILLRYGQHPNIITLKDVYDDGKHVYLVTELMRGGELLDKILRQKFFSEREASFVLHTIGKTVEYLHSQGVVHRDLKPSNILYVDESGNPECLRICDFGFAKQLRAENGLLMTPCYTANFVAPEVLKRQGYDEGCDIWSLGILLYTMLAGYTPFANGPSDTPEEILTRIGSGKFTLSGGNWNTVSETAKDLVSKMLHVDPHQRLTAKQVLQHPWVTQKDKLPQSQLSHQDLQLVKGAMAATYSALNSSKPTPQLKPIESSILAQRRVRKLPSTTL

SMILES: COc1cnccc1Nc1nc(-c2nn(Cc3c(F)cc(OCCO)cc3F)c3ccccc23)ncc1OC
- inhibition [1]: 4%
- residual activity [2]: 95%
- residual activity [3]: 87%
- residual activity [4]: 91%
- inhibition [5]: -2%
- residual activity [6]: 76%
- residual activity [7]: 99%
- residual activity [8]: 100%
- residual activity [9]: 100%
- residual activity [10]: 52%
- residual activity [11]: 100%
- residual activity [12]: 63%
- residual activity [13]: 80%
- inhibition [14]: 22%
- residual activity [15]: 79%
- residual activity [16]: 79%
- Kd [17]: > 30000 nM
- residual activity ([17]; Compound concentration 1.0 uM): 26%
- inhibition [18]: 4%
- residual activity [19]: 99%
- residual activity [20]: 100%
- residual activity [21]: 100%
- residual activity [22]: 99%
- inhibition [23]: 2%
- residual activity [24]: 100%
- residual activity [25]: 100%
- residual activity [26]: 93%
- residual activity [27]: 88%
- residual activity [28]: 83%
- residual activity [29]: 41%
- residual activity [30]: 100%
- Cell Proliferation IC50 [31]: 1200 nM
- residual activity [32]: 88%
- inhibition at 60 min, 10 µM [33]: -15% (not active)
- residual activity [34]: 74%
- residual activity [35]: 100%
- residual activity [36]: 78%
- Cell Proliferation IC50 [37]: 640 nM
- residual activity [38]: 100%
- residual activity [39]: 100%
- residual activity [40]: 100%
- IC50 [41]: 6.5 nM (active)
